Data taken from US20140350029A1 (DAINIPPON SUMITOMO PHARMA CO., LTD., priority 2011, published 2014).
“Also recorded” adds a separate entry of the source.

Tests used:
[1] = biological target: T1, Dopamine D3 receptor (Homo sapiens, UniProt P35462); assay: In vitro receptor binding, dopamine D3; conditions: cloned cells expressing human receptors; read-out: Binding Affinities (Ki; nM) Dopamine D3
T1 construct: expressed in transfected cells

[2] = biological target: dopamine D2 receptor (Homo sapiens, UniProt P14416); conditions: background statement; cited from earlier work
Sequence of dopamine D2 receptor (P14416 whole entry): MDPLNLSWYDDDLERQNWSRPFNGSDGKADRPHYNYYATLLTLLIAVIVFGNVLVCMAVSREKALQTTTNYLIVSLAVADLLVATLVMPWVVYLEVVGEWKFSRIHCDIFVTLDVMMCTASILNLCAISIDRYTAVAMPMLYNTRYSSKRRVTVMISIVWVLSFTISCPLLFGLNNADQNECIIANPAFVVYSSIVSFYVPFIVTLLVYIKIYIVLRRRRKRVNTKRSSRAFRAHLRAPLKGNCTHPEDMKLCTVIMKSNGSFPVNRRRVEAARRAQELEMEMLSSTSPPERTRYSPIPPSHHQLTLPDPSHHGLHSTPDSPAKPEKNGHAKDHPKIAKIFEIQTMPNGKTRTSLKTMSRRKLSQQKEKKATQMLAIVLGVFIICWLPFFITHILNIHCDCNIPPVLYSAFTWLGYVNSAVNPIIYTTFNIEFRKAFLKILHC

[3] = biological target: T2, serotonin 5-HT1A receptor (Homo sapiens, UniProt P08908); conditions: background statement; cited from earlier work
T2 sequence (P08908 1-422): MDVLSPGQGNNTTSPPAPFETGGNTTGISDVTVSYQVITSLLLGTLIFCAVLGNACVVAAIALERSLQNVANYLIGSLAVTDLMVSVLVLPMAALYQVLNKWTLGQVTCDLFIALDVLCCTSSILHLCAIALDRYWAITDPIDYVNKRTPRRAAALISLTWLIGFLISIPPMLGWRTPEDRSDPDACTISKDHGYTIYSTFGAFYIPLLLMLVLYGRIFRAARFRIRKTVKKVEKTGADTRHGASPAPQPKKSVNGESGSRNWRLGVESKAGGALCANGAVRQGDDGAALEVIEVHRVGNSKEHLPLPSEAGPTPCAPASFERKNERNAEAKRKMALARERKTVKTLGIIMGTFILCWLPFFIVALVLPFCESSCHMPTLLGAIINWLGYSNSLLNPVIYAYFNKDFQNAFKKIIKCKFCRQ

[4] = biological target: T3, muscarinic M1 receptor (Homo sapiens, UniProt P11229); conditions: background statement; cited from earlier work
T3 sequence (P11229 1-460): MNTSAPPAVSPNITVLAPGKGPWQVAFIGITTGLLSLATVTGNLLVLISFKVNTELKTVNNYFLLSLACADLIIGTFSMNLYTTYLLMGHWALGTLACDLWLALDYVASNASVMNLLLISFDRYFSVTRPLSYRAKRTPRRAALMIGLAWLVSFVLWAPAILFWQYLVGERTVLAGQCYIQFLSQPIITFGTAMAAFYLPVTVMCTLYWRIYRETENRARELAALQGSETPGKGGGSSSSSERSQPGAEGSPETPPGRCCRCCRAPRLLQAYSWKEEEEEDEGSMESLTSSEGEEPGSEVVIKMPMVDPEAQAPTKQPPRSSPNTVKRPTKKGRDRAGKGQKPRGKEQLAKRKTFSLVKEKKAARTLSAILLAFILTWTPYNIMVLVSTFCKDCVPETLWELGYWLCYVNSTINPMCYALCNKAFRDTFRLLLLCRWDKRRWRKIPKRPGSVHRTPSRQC

T1 sequence (P35462 whole entry): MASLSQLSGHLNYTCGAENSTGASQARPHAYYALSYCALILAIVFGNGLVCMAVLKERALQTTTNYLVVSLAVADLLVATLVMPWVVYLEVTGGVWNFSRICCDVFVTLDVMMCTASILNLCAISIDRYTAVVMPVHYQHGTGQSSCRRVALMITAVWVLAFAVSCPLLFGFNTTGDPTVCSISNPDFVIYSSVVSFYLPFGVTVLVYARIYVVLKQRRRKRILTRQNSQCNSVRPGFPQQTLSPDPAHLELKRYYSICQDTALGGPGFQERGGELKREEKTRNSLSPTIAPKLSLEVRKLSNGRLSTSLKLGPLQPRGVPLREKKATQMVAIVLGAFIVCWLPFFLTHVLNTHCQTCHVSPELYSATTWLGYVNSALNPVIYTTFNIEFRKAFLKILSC

In the case of `O=C1[C@@H]2[C@H]3CC[C@H](C3)[C@@H]2C(=O)N1C[C@@H]1CCCC[C@H]1CN1CCN(c2nsc3ccccc23)CC1` [Lurasidone], the Ki [1] is listed as 15.7 nM, the “reported affinity for dopamine D2 receptor” value [2] is listed as “high affinity” and the “reported affinity for 5-HT1A receptor” value [3] is listed as “high affinity; also recorded: moderate affinity”. The “reported affinity for muscarinic M1 receptor” value [4] was “minimal to no affinity”.
